Reference: US20100004128A1, “HERBICIDAL ISOXAZOLINE COMPOUNDS” (SYNGENTA CROP PROTECTION, INC., priority 2006, published 2010)

System: Monocotyledonous and dicotyledonous test plants
Test: Herbicidal action, application pre-emergence
Assay type: in vivo
Design: key: 10=total damage to plant; 0=no damage to plant
Conditions: spray solution 1000 mg/l, scale 0-10; for Herbicidal action (damage score) AGSTE: Agrostis tenius; for Herbicidal action (damage score) AMARE: Amaranthus retroflexus; for Herbicidal action (damage score) DIGSA: Digitaria sanguinalis; for Herbicidal action (damage score) POATR: Poa trivialis; for Herbicidal action (damage score) SETFA: Setaria faberi; for Herbicidal action (damage score) SETIT: Setaria italica
Protocol: Monocotyledonous and dicotyledonous test plants were sown in sterilised standard soil in seed trays each having 96 cells. After one day (pre-emergence) or after 8 to 9 days cultivation (post-emergence) under controlled conditions in a climatic chamber (cultivation at 23/17° C., day/night; 13 hours light; 50-60% humidity; after application at 24/19° C., day/night), the plants were treated with an aqueous spray solution of 1000 mg/l of the active ingredient used (incl. 10% DMSO as solvent). The plants were grown on in the climatic chamber until the test was evaluated (10=total damage to plant, 0=no damage to plant) after 9 or 13 days.

SMILES	Herbicidal action (damage score) AGSTE	Herbicidal action (damage score) AMARE	Herbicidal action (damage score) DIGSA	Herbicidal action (damage score) POATR	Herbicidal action (damage score) SETFA	Herbicidal action (damage score) SETIT
COCCn1nc(C(F)[S+]([O-])C2=NOC(C)(C)C2)c(C(F)(F)F)n1 (mixture of isomers) [1.24]	10	10	10	10	9	
CC1(C)CC([S+]([O-])C(F)c2nn(C3CCCC3)nc2C(F)(F)F)=NO1 (mixture of isomers) [1.30]	10	10	9	10	8	
C=CCn1nc(C(F)[S+]([O-])C2=NOC(C)(C)C2)c(C(F)(F)F)n1 (mixture of isomers) [1.33]	10	4	10	10	6	
CCn1ncc(C(F)[S+]([O-])C2=NOC(C)(C)C2)n1 (mixture of isomers) [1.39]	10	9	9	10	9	
CC1(C)CC([S+]([O-])C(F)c2cn(C(C)(C)C)nn2)=NO1 (mixture of isomers) [Compound No. 2.03]	8	2	9	4	5	
Cn1nnc(Br)c1C(F)[S+]([O-])C1=NOC(C)(C)C1 (mixture of isomers) [Compound No. 3.05]	10	8	10	10	9	
Cn1nc(C(F)(F)F)c(C(F)(Cl)S(=O)(=O)C2=NOC(C)(C)C2)n1 (racemic) [1.10]	10	10	10	10		10
CCc1nn(CC)nc1C(F)S(=O)(=O)C1=NOC(C)(C)C1 (racemic) [1.12]	10	10	9	10	9	
CC(C)n1nc(C(F)(F)F)c(C(F)(F)[S+]([O-])C2=NOC(C)(C)C2)n1 (racemic) [1.18]	10	10	10	10	9	
Cc1nn(C(F)F)nc1C(F)(F)[S+]([O-])C1=NOC(C)(C)C1 (racemic) [1.22]	10	10	10	10	9	
COCCn1nc(C(F)(F)F)c(C(F)(F)[S+]([O-])C2=NOC(C)(C)C2)n1 (racemic) [1.25]	10	10	10	10	9	
CCc1nn(C)nc1C(F)(F)[S+]([O-])C1=NOC(C)(C)C1 (racemic) [1.27]	10	10	10	10	9	
CC1(C)CC(S(=O)(=O)C(F)c2nn(C3CCCC3)nc2C(F)(F)F)=NO1 (racemic) [1.28]	10	9	9	10	8	
CC1(C)CC([S+]([O-])C(F)(F)c2nn(C3CCCC3)nc2C(F)(F)F)=NO1 (racemic) [1.31]	10	0	9	7	9	
C=CCn1nc(C(F)(F)F)c(C(F)(F)[S+]([O-])C2=NOC(C)(C)C2)n1 (racemic) [1.34]	10	9	10	10	10	
Cc1nn(C)nc1C(F)(Cl)S(=O)(=O)C1=NOC(C)(C)C1 (racemic) [Compound No. 1.07]	10	9	10	10		9

SMILES	Herbicidal action (damage score) AGSTE	Herbicidal action (damage score) AMARE	Herbicidal action (damage score) DIGSA	Herbicidal action (damage score) POATR	Herbicidal action (damage score) SETFA	Herbicidal action (damage score) SETIT
Cn1nc(C(F)S(=O)(=O)C2=NOC(C)(C)C2)c(C(F)(F)F)n1 (racemic) [Compound No. 1.11]	10	10	10	10		10
CCn1nc(C(F)(F)F)c(C(F)(F)[S+]([O-])C2=NOC(C)(C)C2)n1 (racemic) [Compound No. 1.16]	10	10	10	10	9	
Cc1nn(C(F)F)nc1C(F)S(=O)(=O)C1=NOC(C)(C)C1 (racemic) [Compound No. 1.19]	10	10	10	10	10	
Cc1nn(C(F)F)nc1C(F)[S+]([O-])C1=NOC(C)(C)C1 (racemic) [Compound No. 1.21]	10	10	10	10	10	
Cn1nc(C(F)(F)F)c(C(F)(F)S(=O)(=O)C2=NOC(C)(C)C2)n1 [1.09]	10	10	10	10		10
CCn1nc(C(F)(F)F)c(C(F)(F)S(=O)(=O)C2=NOC(C)(C)C2)n1 [1.15]	10	10	10	10	10	
CC(C)n1nc(C(F)(F)F)c(C(F)(F)S(=O)(=O)C2=NOC(C)(C)C2)n1 [1.17]	10	10	9	10	10	
Cc1nn(C(F)F)nc1C(F)(F)S(=O)(=O)C1=NOC(C)(C)C1 [1.20]	10	10	10	10	9	
COCCn1nc(C(F)(F)F)c(C(F)(F)S(=O)(=O)C2=NOC(C)(C)C2)n1 [1.23]	10	10	10	10	10	
CCc1nn(C)nc1C(F)(F)S(=O)(=O)C1=NOC(C)(C)C1 [1.26]	10	10	10	10	10	
CC1(C)CC(S(=O)(=O)C(F)(F)c2nn(C3CCCC3)nc2C(F)(F)F)=NO1 [1.29]	10	8	9	6	9	
C=CCn1nc(C(F)(F)F)c(C(F)(F)S(=O)(=O)C2=NOC(C)(C)C2)n1 [1.32]	10	10	10	10	10	
Cn1ncc(C(F)(F)S(=O)(=O)C2=NOC(C)(C)C2)n1 [1.35]	10	10	9	10	9	
Cn1ncc(C(F)(F)[S+]([O-])C2=NOC(C)(C)C2)n1 (stereo not shown) [1.36]	10	9	10	10	9	
CCn1ncc(C(F)S(=O)(=O)C2=NOC(C)(C)C2)n1 (stereo not shown) [1.37]	10	10	9	10	9	
CCn1ncc(C(F)(F)S(=O)(=O)C2=NOC(C)(C)C2)n1 [1.38]	10	10	9	10	9	
